Results reported in publication PMC5486078, “Molecular Cloning and Functional Characterization of a Hexokinase from the Oriental River Prawn Macrobrachium nipponense in Response to Hypoxia” (International Journal of Molecular Sciences, 2017).
Where two headings read alike, the source gives them in different places. Values belong to the molecule of their own block, whether it stands above or below them.

How the values were obtained:
[1] = target: T1, rMnHK (recombinant M. nipponense hexokinase) (Macrobrachium nipponense, UniProt A0A220NLA7); assay: enzyme inhibition, Lineweaver-Burk plot; assay type: biochemical
T1 construct: pET-28a, His tag, E. coli BL21 (DE3); about 70 kDa on SDS-PAGE
T1 sequence (A0A220NLA7 1-449): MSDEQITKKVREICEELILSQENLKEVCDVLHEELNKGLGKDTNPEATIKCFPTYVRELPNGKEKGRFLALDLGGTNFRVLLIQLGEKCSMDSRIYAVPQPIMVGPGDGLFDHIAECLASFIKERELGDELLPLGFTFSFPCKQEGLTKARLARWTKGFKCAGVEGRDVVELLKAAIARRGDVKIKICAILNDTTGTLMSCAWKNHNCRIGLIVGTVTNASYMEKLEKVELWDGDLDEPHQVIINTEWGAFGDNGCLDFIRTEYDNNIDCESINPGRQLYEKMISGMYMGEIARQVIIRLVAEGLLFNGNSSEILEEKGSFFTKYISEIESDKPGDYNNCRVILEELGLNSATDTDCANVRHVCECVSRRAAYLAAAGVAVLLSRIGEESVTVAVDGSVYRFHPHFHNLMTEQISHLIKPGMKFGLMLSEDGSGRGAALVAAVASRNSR
Excerpt: enzyme inhibition, Lineweaver-Burk plot on rMnHK (recombinant M. nipponense hexokinase)

[2] = substrate: Nc1ncnc2c1ncn2[C@@H]1O[C@H](COP(=O)(O)OP(=O)(O)OP(=O)(O)O)[C@@H](O)[C@H]1O; assay: steady-state kinetics, Michaelis-Menten / Lineweaver-Burk plot; assay type: biochemical, Macrobrachium nipponense; conditions: co-substrate hexose; assay pH and temperature not stated

Ki ([1]; read-out: Inhibitor Studies (Ki) (mM) / PPi): 0.011 mM
Molecule: O=P(O)(O)OP(=O)(O)O [PPi]

Ki ([1]; read-out: Inhibitor Studies (Ki) (mM) / ADP): 0.76 mM
Molecule: Nc1ncnc2c1ncn2[C@@H]1O[C@H](COP(=O)(O)OP(=O)(O)O)[C@@H](O)[C@H]1O [ADP]

B1: rMnHK (recombinant M. nipponense hexokinase) (Macrobrachium nipponense) (protein)
chain: MSDEQITKKVREICEELILSQENLKEVCDVLHEELNKGLGKDTNPEATIKCFPTYVRELPNGKEKGRFLALDLGGTNFRVLLIQLGEKCSMDSRIYAVPQPIMVGPGDGLFDHIAECLASFIKERELGDELLPLGFTFSFPCKQEGLTKARLARWTKGFKCAGVEGRDVVELLKAAIARRGDVKIKICAILNDTTGTLMSCAWKNHNCRIGLIVGTVTNASYMEKLEKVELWDGDLDEPHQVIINTEWGAFGDNGCLDFIRTEYDNNIDCESINPGRQLYEKMISGMYMGEIARQVIIRLVAEGLLFNGNSSEILEEKGSFFTKYISEIESDKPGDYNNCRVILEELGLNSATDTDCANVRHVCECVSRRAAYLAAAGVAVLLSRIGEESVTVAVDGSVYRFHPHFHNLMTEQISHLIKPGMKFGLMLSEDGSGRGAALVAAVASRNSR
notes: pET-28a, His tag, E. coli BL21 (DE3); about 70 kDa on SDS-PAGE
Km [2]: 880 ± 600 µM
